For series [1] the following is noted: infected patients, 60 mg daily for four months; in words; cited from earlier work.
The target in the next series is COVID-19 protease (Severe acute respiratory syndrome coronavirus 2, UniProt P0DTD1). The settings on record: molecular docking, in words; cited from earlier work.
Series [2] has as its system SARS-CoV-2. Put plainly: In vitro antiviral immunostaining assay in Calu-3 cells. The format is cell-based.
In series [3] the test system is SARS-CoV-2. Put plainly: microbe, parasite or virus in culture. The format is cell-based.
Another series deals with Calu-3 cells. Conditions: in words.
The next series is described as follows: in vitro. The settings on record: human.
For series [4] the following is noted: from three publications; read-out: cytotoxicity (CC50); cited from earlier work.
In series [5] the target is T1, α-globulin (vitamin D-Binding Protein [DBP]) (Homo sapiens, UniProt P02774).
T1 sequence (P02774 17-474): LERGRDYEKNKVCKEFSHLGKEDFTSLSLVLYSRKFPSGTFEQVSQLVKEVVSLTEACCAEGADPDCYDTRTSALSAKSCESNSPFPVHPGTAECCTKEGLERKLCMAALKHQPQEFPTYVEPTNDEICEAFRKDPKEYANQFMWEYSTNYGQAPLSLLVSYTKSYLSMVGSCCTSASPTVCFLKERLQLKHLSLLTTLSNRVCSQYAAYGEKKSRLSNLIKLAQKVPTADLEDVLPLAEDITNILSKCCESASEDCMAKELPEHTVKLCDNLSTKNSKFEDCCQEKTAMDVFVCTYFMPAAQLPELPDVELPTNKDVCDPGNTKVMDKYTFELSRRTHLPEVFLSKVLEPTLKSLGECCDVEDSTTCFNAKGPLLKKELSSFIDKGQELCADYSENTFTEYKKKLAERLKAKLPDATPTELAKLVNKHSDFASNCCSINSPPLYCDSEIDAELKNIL
The settings on record: binds weakly to α-globulin (DBP) after absorption via chylomicrons; cited from earlier work.

Series [6] concerns SARS-CoV-2. Put plainly: In vitro antiviral immunostaining assay in Vero E6 cells.
Series [7] concerns SARS-CoV-2. In words: In vitro antiviral assay, VeroE6 cells and Calu3 cells (cell line not separated in the statement). Conditions: for inhibition of the SARS-CoV-2 virus: cell line not specified (FIG. 2, FIG. 6).

Structures are written as SMILES. Like-named read-outs stand apart in the source and are kept apart here.

As to `CC1=C(/C=C/C(C)=C/C=C/C(C)=C/C=C/C=C(C)/C=C/C=C(C)/C=C/C2=C(C)CCCC2(C)C)C(C)(C)CCC1` [Beta Carotene, Beta-carotene], the clinical toxicity result in series [1] was “No clinical toxicity was observed”.

Regarding `C[C@@H]1C(=O)O[C@H]2C[C@@]34[C@H]5C[C@@H](C(C)(C)C)[C@]36[C@@H](OC(=O)[C@@H]6O)O[C@@]4(C(=O)O5)[C@]21O` [Ginkgolide A], at COVID-19 protease, the “predicted binding affinity to the COVID-19 protease” value was “high binding affinity”.

Regarding `CC(C)=CCC[C@](C)(O)[C@@H]1CC=C(C)CC1` [Levomenol, α-(−)-bisabolol], the “inhibition of the virus” value in the series on SARS-CoV-2 [2] (Calu-3 cells infected with SARS-CoV-2, FIG. 3) is given as “about 60%”. For the same molecule, the “selectivity index (SI)” value with SARS-CoV-2 [3] (Calu-3 cells, from CC50 and EC50) is 26.1. In the series with SARS-CoV-2 [3] (Severe acute respiratory syndrome coronavirus 2, Calu-3 cells infected with SARS-CoV-2, FIG. 4, read-out: EC50 (antiviral activity against SARS-CoV-2)), the EC50 – broadly, the concentration at which the effect is half-maximal – was 0.115 µM. In addition, in the series with Calu-3 cells, the “cytotoxicity, as measured by inhibition of cell viability” value is “not observed”. The molecule further displayed a CC50 in the series “in vitro” of 3 µM.

For `CCC(CC)COC(=O)[C@H](C)N[P@](=O)(OC[C@H]1O[C@@](C#N)(c2ccc3c(N)ncnn23)[C@H](O)[C@@H]1O)Oc1ccccc1` [Remdesivir], in series [4], the CC50 is greater than 100 µM.

As for `C=C1CC[C@H](O)C/C1=C/C=C1\CCC[C@]2(C)[C@@H]([C@H](C)CCCC(C)C)CC[C@@H]12` [Vitamin D3, cholecalciferol], the IC50 (usually the midpoint of a concentration-inhibition curve) was roughly 22.3 µM in the series on SARS-CoV-2 [2] (Severe acute respiratory syndrome coronavirus 2, Calu-3) and roughly 33.5 µM in the series with SARS-CoV-2 [6] (VeroE6 cells, FIG. 2). The protein binding in series [5] was 50-80%. In the series on SARS-CoV-2 [6] (Vero E 6 cells, SARS-CoV-2, in words), the EC100 result is “Achieved”. In addition, in the series with SARS-CoV-2 [7], the “inhibition of the SARS-CoV-2 virus” value is listed as “about 100%”.

On to `[Zn]` [Zinc], for which, in the series on SARS-CoV-2 [7] (FIG. 6, in words), the “cytotoxicity, as measured by cell viability” value is listed as “not observed”. Besides, the “inhibition of the SARS-CoV-2 virus” value with SARS-CoV-2 [7] is “about 75%”.

The values are drawn from US20250268967A1, “NUTRACEUTICAL COMPOUNDS USEFUL IN THE TREATMENT OF CORONAVIRUS DISEASE” (priority 2020, published 2025).
